Earlier results as cited in patent US20090318377A1, “MEDICAGENIC ACID SAPONIN AND USES THEREOF” (MEDICAGO INC., priority 2006, published 2009).

Test system: Syrian Golden hamster
Conditions: average daily dose 128 mg/kg for 4 weeks

## soyasaponin B
  reduction in high-density lipoprotein (HDL): 33%
  reduction in plasma cholesterol: 20%
  reduction in triglycerides: 18%
